Legend:
[1] = test system: human β-hexosaminidase [human placenta] (HexA/B); test: Determination of IC50 values for inhibition of human β-hexosaminidase; type: biochemical; settings: ratio
How it was run: (§1)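 Inhibitor titrated from 300 μM to 0.003 μM or 100 μM to 0.001 μM. IC50 values come from curve fits, and selectivity is IC50(β-hexosaminidase)/IC50(human OGA).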

[2] = target: T1, human β-hexosaminidase [human placenta] (HexA/B); test: as above; type: biochemical; settings: human β-hexosaminidase, human placenta; room temperature, thirty minutes
T1 construct: other: human β-hexosaminidase, human placenta; room temperature, thirty minutes
How it was run: as §1

human OGA [3] = target: T2, human OGA (Homo sapiens, UniProt O60502); test: Determination of IC50 values for inhibition of human OGA; type: biochemical
T2 construct: made in house
T2 sequence (O60502 1-916): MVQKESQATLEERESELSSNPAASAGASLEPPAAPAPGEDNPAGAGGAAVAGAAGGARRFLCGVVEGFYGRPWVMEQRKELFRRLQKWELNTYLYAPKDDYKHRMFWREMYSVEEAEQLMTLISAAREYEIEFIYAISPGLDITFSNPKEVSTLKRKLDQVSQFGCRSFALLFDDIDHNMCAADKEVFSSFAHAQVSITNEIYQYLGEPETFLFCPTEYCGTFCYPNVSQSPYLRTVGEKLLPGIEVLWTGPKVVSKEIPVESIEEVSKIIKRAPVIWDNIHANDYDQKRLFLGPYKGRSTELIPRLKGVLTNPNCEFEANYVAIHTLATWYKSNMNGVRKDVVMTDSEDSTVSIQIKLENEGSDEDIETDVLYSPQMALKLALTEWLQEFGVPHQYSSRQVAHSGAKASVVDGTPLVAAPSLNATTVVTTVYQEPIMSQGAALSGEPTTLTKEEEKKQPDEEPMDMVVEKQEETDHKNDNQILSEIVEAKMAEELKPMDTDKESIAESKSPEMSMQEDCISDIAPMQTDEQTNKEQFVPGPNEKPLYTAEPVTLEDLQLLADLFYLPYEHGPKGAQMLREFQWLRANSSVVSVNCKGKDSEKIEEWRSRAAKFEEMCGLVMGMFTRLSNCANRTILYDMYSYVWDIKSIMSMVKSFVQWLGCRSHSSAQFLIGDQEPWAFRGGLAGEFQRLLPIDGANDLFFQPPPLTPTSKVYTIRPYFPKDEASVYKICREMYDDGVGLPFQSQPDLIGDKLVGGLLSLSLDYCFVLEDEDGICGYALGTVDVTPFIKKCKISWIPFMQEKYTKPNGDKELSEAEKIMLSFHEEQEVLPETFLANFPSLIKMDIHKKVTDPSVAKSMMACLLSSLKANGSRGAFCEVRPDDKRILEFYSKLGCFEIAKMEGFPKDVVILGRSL
Protocol: Inhibitors identified from the screen described in Example 1 were evaluated for IC50 using a procedure adapted from Biochem. J. 2009, 420, 221-227. IC50 determination was carried out using a range of inhibitor concentrations from 300 μM to 0.003 μM or 100 μM to 0.001 μM. IC50 values were calculated using XLFit 4.

human OGA (hOGA) = target: T3, human OGA (hOGA) (Homo sapiens, UniProt O60502); test: Screening of inhibitor library against human OGA (single point, triplicate); type: biochemical; settings: 100 μM inhibitor concentration
T3 construct: made in house
T3 sequence (O60502 1-916): T2 sequence (O60502 1-916)
Protocol: Expressed and purified human OGA (hOGA) was screened against a library of compounds (compounds stored in 100% DMSO at a concentration of 10 mM) according to a procedure modified from that detailed in Biochem. J. 2009, 420, 221-227 and using the reaction reagents set out in the Table (below). The modification to the published protocol was that an emission wavelength of 450 nm was used rather than […]. Assays were run at singlepoint in triplicate. Inhibitors for further evaluation were selected based on an average observed inhibition greater than 50%.

human OGA [4] = target: T2, human OGA; test: Determination of Ki values for inhibition of human OGA (4MU-GlcNAc substrate); type: biochemical; settings: 2 nM human OGA, McIlvaine buffer pH 7.4, one hour
Protocol: Enzymatic reactions were carried out in McIlvaine buffer (0.2M Na2PO4, 0.1M citric acid; pH 7.4) using 2 nM human OGA and 4MU-GlcNAc as substrate in the presence of inhibitor. For the Ki of AXX inhibitor concentrations were 0, 20, 40, 80, 160 and 320 nM [for the Ki determination of other compounds either the same concentrations or similar concentrations were used] and 4MU-GlcNAc concentrations were 50, 100, 200, 400, 800, 1600, and 3200 μM. Reactions were left for one hour. […] Modes of inhibition were determined by Lineweaver-Burke analysis and Ki values were determined using GraphPad 5 Prism non-linear regression analysis.

[5] = test system: O-GlcNAc modified proteins in PC-12 cells or SH-SY5Y cells; test: Western blot analyses of O-GlcNAc modified proteins in cells; type: cell-based; settings: for EC50: western blot, cells dosed 4 hours at 37° C., cell line not given
Protocol: PC-12 cells or SH-SY5Y cells were dosed with the test compound or vehicle control at 37° C. for 4 hours. Once the incubation was completed the media was removed and cells were lysed. Extracted protein was then used for Western blot analysis using standard molecular biology techniques. The resulting membrane was probed with antibodies specific for tau phosphorylation sites (pSer396, pSer422, pThr231, pSer262) or with antibodies specific for O-GlcNAcylation sites (RL-2 or CTD110.6). The primary antibodies were visualised using appropriate secondary conjugated with the fluorophores Alexa 532 or Alexa 488. Actin was visualised using a FITC conjugated primary antibody. Relative quantification was measured in relation to the actin signal using Image lab software (BRL). Marked increases in O-GlcNAcylated proteins within the cells were observed as compared to controls when cells were dosed with test compound.

Selectivity: IC50(human β-hexosaminidase)/IC50(Human OGA) [1] | IC50 [2] | IC50 (human OGA [3]) | inhibition at 100 µM (human OGA (hOGA)) | Ki (human OGA [4]) | EC50 [5] | SMILES | cellular levels of O-GlcNAc modified proteins relative to vehicle (FIG. 2) ([5]; SH-SY5Y cells, 4 hours) | cellular levels of O-GlcNAc modified proteins relative to vehicle (FIG. 1) ([5]; SH-SY5Y cells, 4 hours, varying concentrations)
>5 | > 300 µM | 58 µM | 89.6% | – | – | CCCCCCCCCN1[C@H](CC(=O)NCCCC)[C@H](O)[C@H](O)[C@H]1CO [Compound A001, N-butyl-2-((2R,3S,4R,5R)-3,4-dihydroxy-5-(hydroxymethyl)-1-nonylpyrrolidin-2-yl)acetamide] | – | –
>37037 | > 300 µM | 0.008 µM | – | 0.041 µM | 0.604 µM | CNC(=O)C[C@@H]1[C@H](O)[C@H](O)[C@@H](CO)N1CCCCC(C)C [Compound A021, 2-((2R,3S,4R,5R)-3,4-dihydroxy-5-(hydroxymethyl)-1-(5-methylhexyl)pyrrolidin-2-yl)-N-methylacetamide] | increase | –
>6085 | > 300 µM | 0.049 µM | – | 0.07 µM | 0.656 µM | CCCCCCN1[C@H](CC(=O)NC)[C@H](O)[C@H](O)[C@H]1CO [Compound A012, 2-((2R,3S,4R,5R)-1-hexyl-3,4-dihydroxy-5-(hydroxymethyl)pyrrolidin-2-yl)-N-methylacetamide] | increase | increase

More lines, now with the values behind:

SMILES | Selectivity: IC50(human β-hexosaminidase)/IC50(Human OGA) [1] | IC50 [2] | IC50 (human OGA [3]) | inhibition at 100 µM (human OGA (hOGA)) | Ki (human OGA [4]) | EC50 [5] | cellular levels of O-GlcNAc modified proteins relative to vehicle (FIG. 2) ([5]; SH-SY5Y cells, 4 hours) | cellular levels of O-GlcNAc modified proteins relative to vehicle (FIG. 1) ([5]; SH-SY5Y cells, 4 hours, varying concentrations)
CCCCNC(=O)C[C@H]1N[C@H](CO)[C@@H](O)[C@H]1O [Compound A002, N-butyl-2-((2R,3S,4R,5R)-3,4-dihydroxy-5-(hydroxymethyl)pyrrolidin-2-yl)acetamide] | >4 | > 300 µM | 75 µM | 52.8% | – | – | – | –
CNC(=O)C[C@@H]1[C@H](O)[C@H](O)[C@@H](CO)N1CCCCCNS(=O)(=O)c1ccc(-c2ccccc2)cc1 [Compound A066, 2-((2R,3S,4R,5R)-1-(5-([1,1′-biphenyl]-4-ylsulfonamido)pentyl)-3,4-dihydroxy-5-(hydroxymethyl)pyrrolidin-2-yl)-N-methylacetamide] | >3633 | 10.9 µM | < 0.003 µM | – | 0.003 µM | 0.02 µM | – | –
CNC(=O)C[C@@H]1[C@H](O)[C@H](O)[C@@H](CO)N1CCCc1ccccc1 [Compound A016, 2-((2R,3S,4R,5R)-3,4-dihydroxy-5-(hydroxymethyl)-1-(3-phenylpropyl)pyrrolidin-2-yl)-N-methylacetamide] | >18000 | 54 µM | < 0.003 µM | – | 0.011 µM | 0.255 µM | increase | –
CCCCNC(=O)C[C@@H]1[C@H](O)[C@H](O)[C@@H](CO)N1CCCCCCCCCO [Compound A003, N-butyl-2-((2R,3S,4R,5R)-3,4-dihydroxy-5-(hydroxymethyl)-1-(9-hydroxynonyl)pyrrolidin-2-yl)acetamide] | >4 | > 300 µM | 74.6 µM | 82.8% | – | – | – | –
CCNC(=O)C[C@@H]1[C@@H](O)[C@H](O)[C@@H](CO)N1CCCc1ccc(OC)cc1 [Compound A060, 2-((2R,3R,4R,5R)-3,4-dihydroxy-5-(hydroxymethyl)-1-(3-(4-methoxyphenyl)propyl)pyrrolidin-2-yl)-N-ethylacetamide] | >27272 | > 300 µM | 0.011 µM | – | 0.167 µM | 0.263 µM | – | –

From US20140073801A1, “PYRROLIDINE DERIVATIVES AS SELECTIVE GLYCOSIDASE INHIBITORS AND USES THEREOF” (Summit Corporation Plc, priority 2011, published 2014)
